Results as given in the supplement of paper PMC10331698.
± gives the standard deviation of the averaged measurements.

How the values were obtained:
Test in all cases: level (log10 ratio to DMSO vehicle control); higher = higher biomarker level / cell amount than vehicle control
[1] = compound: OCCC(F)(F)C(F)(F)C(F)(F)C(F)(F)C(F)(F)C(F)(F)C(F)(F)C(F)(F)F [8:2 Fluorotelomer alcohol]; details: 6700 nM; in DMSO
Experimental: (§1)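 BioMAP Diversity Plus panel of 12 human primary cell co-culture systems (3C, 4H, LPS, SAg, BT, BF4T, BE3C, CASM3C, HDF3CGF, KF3CT, MyoF, Mphg). Compounds were added 1 h before stimulation and left for 24 h (MyoF 48 h; BT 72 h for soluble read-outs or 6 d for IgG). Biomarkers were read by ELISA, cytotoxicity by SRB, PBMC viability and proliferation by Alamar Blue. Each well value was divided by the mean of 8 DMSO control wells on the same plate and log10 transformed; duplicate blinded samples were tested at 4 concentrations.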

[2] = compound: O=C(CC(=O)C(F)(F)C(F)(F)C(F)(F)F)c1cccs1 [(Perfluorobutyryl)-2-thenoylmethane]; details: in DMSO
Experimental: as §1

Methotrexate = compound: CN(Cc1cnc2nc(N)nc(N)c2n1)c1ccc(C(=O)N[C@@H](CCC(=O)O)C(=O)O)cc1 [Methotrexate]; details: in DMSO
Experimental: as §1

[3] = compound: C=CC(=O)OCC(F)(F)C(F)(F)C(F)(F)C(F)(F)COC(=O)C=C [1H,1H,6H,6H-Perfluorohexane-1,6-diol diacrylate]; details: 6700 nM; in DMSO
Experimental: as §1

Perfluorooctanoic acid = compound: O=C(O)C(F)(F)C(F)(F)C(F)(F)C(F)(F)C(F)(F)C(F)(F)C(F)(F)F [Perfluorooctanoic acid]; details: in DMSO
Experimental: as §1

[4] = compound: OCCCCC(F)(F)C(F)(F)C(F)(F)C(F)(F)F [4:4 Fluorotelomer alcohol]; details: in DMSO
Experimental: as §1

Tetrafluorosuccinic acid = compound: O=C(O)C(F)(F)C(F)(F)C(=O)O [Tetrafluorosuccinic acid]; details: in DMSO
Experimental: as §1

[5] = compound: O=S(=O)(O)CCC(F)(F)C(F)(F)C(F)(F)C(F)(F)F [4:2 Fluorotelomer sulfonic acid]; details: in DMSO
Experimental: as §1

| Test System | level (log10) [1] | level (log10) ([2]; 6700 nM) | level (log10) ([2]; 20000 nM) | level (log10) (Methotrexate; 1500 nM) | level (log10) (Methotrexate; 4400 nM) | level (log10) (Methotrexate; 13000 nM) | level (log10) (Methotrexate; 40000 nM) | level (log10) [3] | level (log10) (Perfluorooctanoic acid; 6700 nM) | level (log10) (Perfluorooctanoic acid; 20000 nM) | level (log10) (Perfluorooctanoic acid; 60000 nM) | level (log10) ([4]; 6700 nM) | level (log10) ([4]; 20000 nM) | level (log10) ([4]; 60000 nM) | level (log10) (Tetrafluorosuccinic acid; 6700 nM) | level (log10) (Tetrafluorosuccinic acid; 20000 nM) | level (log10) (Tetrafluorosuccinic acid; 60000 nM) | level (log10) ([5]; 6700 nM) | level (log10) ([5]; 20000 nM) | level (log10) ([5]; 60000 nM) |
| --- | --- | --- | --- | --- | --- | --- | --- | --- | --- | --- | --- | --- | --- | --- | --- | --- | --- | --- | --- | --- |
| KF3CT:MMP-9 | -0.09 ± 0.027 | -0.107 ± 0.027 | -0.122 ± 0.012 | 0.017 ± 0.013 | -0.001 ± 0.014 | -0.0045 ± 0.04 | 0.0075 ± 0.019 | -0.035 ± 0.064 | -0.0225 ± 0.026 | 0.003 ± 0.0099 | 0.028 ± 0.011 | -0.011 ± 0.013 | -0.003 ± 0.034 | 0.011 ± 0.021 | -0.0305 ± 0.018 | -0.024 ± 0.031 | -0.0085 ± 0.035 | 0.0075 ± 0.012 | -0.011 ± 0.037 | 0.023 ± 0.0057 |
| HDF3CGF:Collagen I | -0.022 ± 0.0042 | -0.0265 ± 0.04 | -0.185 ± 0.0071 | -0.0495 ± 0.079 | -0.077 ± 0.083 | -0.068 ± 0.095 | -0.0415 ± 0.035 | -0.013 ± 0.048 | -0.025 ± 0.0028 | 0.0005 ± 0.016 | 0.0395 ± 0.054 | -0.0175 ± 0.067 | -0.0175 ± 0.071 | 0.031 ± 0.13 | -0.0515 ± 0.025 | -0.0235 ± 0.018 | -0.0305 ± 0.029 | -0.0015 ± 0.054 | -0.007 ± 0.0057 | 0.0385 ± 0.018 |
| KF3CT:IL-1alpha | -0.0545 ± 0.029 | 0.0165 ± 0.005 | 0.009 ± 0.0028 | -0.0145 ± 0.013 | -0.0225 ± 0.032 | -0.002 ± 0.052 | -0.0145 ± 0.039 | -0.0545 ± 0.035 | 0.018 ± 0.0057 | 0.012 ± 0.0014 | -0.0395 ± 0.0035 | 0.0145 ± 0.029 | 0.005 ± 0.042 | 0.019 ± 0.03 | -0.012 ± 0.0042 | -0.0385 ± 0.019 | 0.007 ± 0.023 | -0.0155 ± 0.0021 | -0.0355 ± 0.0078 | -0.021 ± 0.021 |
| HDF3CGF:Collagen III | -0.0025 ± 0.032 | 0.0155 ± 0.013 | -0.452 ± 0.0042 | 0.0115 ± 0.061 | -0.002 ± 0.072 | 0.004 ± 0.013 | -0.026 ± 0.086 | 0.105 ± 0.11 | 0.012 ± 0.011 | 0.0255 ± 0.0078 | 0.0155 ± 0.053 | -0.0165 ± 0.029 | -0.0105 ± 0.019 | 0.011 ± 0.05 | -0.058 ± 0.057 | -0.0805 ± 0.059 | -0.118 ± 0.02 | -0.0795 ± 0.13 | -0.0585 ± 0.14 | -0.0265 ± 0.09 |
| lMphg:SRB | -0.02 | -0.0175 ± 0.0064 | -0.106 ± 0.029 | 0.0015 ± 0.0064 | -0.0005 ± 0.00071 | -0.002 ± 0.0085 | 0.0055 ± 0.00071 | -0.0075 ± 0.0035 | -0.008 ± 0.0071 | -0.0005 ± 0.005 | 0.011 ± 0.017 | -0.015 ± 0.0028 | -0.0055 ± 0.0035 | 0.004 ± 0.033 | -0.008 ± 0.0014 | 0.001 | 0.001 ± 0.013 | -0.0035 ± 0.00071 | 0.004 ± 0.0042 | -0.001 ± 0.0042 |
| 3C:CD54/ICAM-1 | -0.014 ± 0.0014 | -0.027 ± 0.021 | -0.0365 ± 0.00071 | 0.0065 ± 0.0064 | -0.0085 ± 0.005 | 0.0045 ± 0.013 | -0.002 ± 0.0085 | -0.028 ± 0.0085 | -0.0145 ± 0.0035 | -0.007 ± 0.0042 | 0.0185 ± 0.0078 | 0 ± 0.037 | -0.017 ± 0.041 | -0.002 ± 0.047 | -0.0015 ± 0.0092 | -0.016 ± 0.011 | 0.001 ± 0.0028 | 0.001 ± 0.0014 | -0.0125 ± 0.0021 | 0.0045 ± 0.012 |
| lMphg:CCL2/MCP-1 | 0.0165 ± 0.019 | -0.047 ± 0.031 | -0.27 ± 0.056 | 0.0115 ± 0.03 | 0.008 ± 0.035 | -0.0105 ± 0.033 | -0.0055 ± 0.021 | -0.04 ± 0.061 | 0.018 ± 0.0071 | 0.036 ± 0.0028 | 0.025 ± 0.025 | -0.0295 ± 0.037 | -0.0145 ± 0.00071 | 0.009 ± 0.0071 | -0.03 ± 0.016 | -0.0195 ± 0.012 | 0.0005 ± 0.042 | 0.0005 ± 0.047 | 0.006 ± 0.025 | -0.001 ± 0.0071 |
| HDF3CGF:TIMP-2 | -0.0475 ± 0.079 | -0.115 ± 0.013 | -0.408 ± 0.017 | -0.0655 ± 0.032 | 0 ± 0.11 | -0.005 ± 0.085 | -0.0335 ± 0.15 | -0.104 ± 0.066 | -0.013 ± 0.014 | 0.0045 ± 0.019 | 0.033 ± 0.0042 | -0.004 ± 0.0099 | 0.024 ± 0.028 | -0.0225 ± 0.026 | -0.052 ± 0.042 | -0.069 ± 0.025 | -0.1 ± 0.018 | -0.026 ± 0.0028 | -0.0335 ± 0.016 | -0.009 ± 0.051 |
| MyoF:CXCL8/IL-8 | 0.023 ± 0.0014 | -0.0155 ± 0.0078 | 0.016 ± 0.018 | 0.0055 ± 0.028 | 0.0135 ± 0.016 | -0.0035 ± 0.033 | 0.0105 ± 0.022 | -0.049 ± 0.035 | 0.022 ± 0.0028 | 0.0725 ± 0.026 | 0.078 ± 0.02 | 0.041 ± 0.075 | 0.0345 ± 0.1 | 0.0695 ± 0.13 | -0.013 ± 0.0099 | -0.019 ± 0.014 | 0.006 ± 0.025 | 0 ± 0.0028 | 0.003 ± 0.02 | -0.0055 ± 0.018 |
| MyoF:TIMP-1 | -0.0435 ± 0.025 | -0.042 ± 0.047 | -0.0405 ± 0.015 | -0.0025 ± 0.0021 | -0.025 ± 0.027 | -0.012 ± 0.033 | -0.0285 ± 0.084 | -0.0015 ± 0.016 | -0.0245 ± 0.005 | 0.0185 ± 0.0078 | 0.089 ± 0.013 | 0.021 ± 0.062 | 0.0235 ± 0.067 | 0.0315 ± 0.087 | -0.0045 ± 0.022 | -0.0215 ± 0.04 | -0.026 ± 0.069 | -0.0465 ± 0.069 | -0.0285 ± 0.047 | -0.0095 ± 0.036 |
| HDF3CGF:EGFR | 0.037 ± 0.0085 | -0.101 ± 0.073 | -0.0595 ± 0.018 | -0.0035 ± 0.018 | -0.008 ± 0.0099 | -0.011 ± 0.028 | -0.021 ± 0.027 | -0.0155 ± 0.0078 | -0.065 ± 0.086 | -0.086 ± 0.028 | -0.0965 ± 0.044 | -0.0155 ± 0.0035 | -0.0105 ± 0.0035 | 0.0195 ± 0.05 | -0.0065 ± 0.033 | -0.008 ± 0.0028 | 0.029 ± 0.038 | -0.0575 ± 0.093 | -0.042 ± 0.054 | -0.019 ± 0.079 |
| HDF3CGF:SRB | -0.0335 ± 0.035 | 0.0935 ± 0.005 | 0.0145 ± 0.005 | 0.018 ± 0.034 | -0.0135 ± 0.0035 | 0.025 ± 0.011 | 0.014 ± 0.016 | -0.291 ± 0.028 | -0.0075 ± 0.026 | 0.0325 ± 0.043 | -0.0245 ± 0.056 | 0.0015 ± 0.036 | -0.0165 ± 0.0064 | 0.006 ± 0.018 | -0.0125 ± 0.011 | -0.013 ± 0.03 | 0.007 ± 0.044 | -0.0365 ± 0.037 | -0.0075 ± 0.033 | 0.033 ± 0.058 |
| HDF3CGF:M-CSF | -0.044 ± 0.028 | 0.0085 ± 0.013 | -0.001 ± 0.0028 | -0.051 ± 0.076 | -0.0445 ± 0.077 | -0.033 ± 0.1 | -0.0655 ± 0.17 | -0.588 ± 0.054 | -0.0205 ± 0.04 | 0.013 ± 0.0028 | 0.0235 ± 0.016 | -0.008 | -0.0015 ± 0.0092 | -0.014 ± 0.0014 | -0.0505 ± 0.018 | -0.0735 ± 0.0035 | -0.048 ± 0.0099 | -0.038 ± 0.05 | -0.062 ± 0.05 | -0.0835 ± 0.019 |
| 3C:CD62E/E-Selectin | -0.016 ± 0.0099 | -0.0365 ± 0.036 | -0.019 ± 0.0014 | 0.007 ± 0.0057 | -0.0145 ± 0.0035 | -0.004 ± 0.02 | 0.01 ± 0.011 | -0.066 ± 0.0057 | 0.001 ± 0.0042 | 0.0195 ± 0.0035 | 0.0725 ± 0.0078 | -0.004 ± 0.0014 | -0.0055 ± 0.032 | 0.0105 ± 0.012 | -0.0015 ± 0.016 | -0.0155 ± 0.0064 | -0.01 ± 0.0099 | -0.019 ± 0.011 | -0.0035 ± 0.019 | 0.0045 ± 0.018 |
